We go through 27 compounds from patent US8883782B2, “Spiro-tetracyclic ring compounds as beta-secretase modulators and methods of use” (Amgen Inc., priority 2010, dated 2014).

Like-named read-outs stand apart in the source and are kept apart here.

In assay [1] the target is Beta Secretase enzyme (BACE) (Homo sapiens, UniProt P56817). The assay is described as follows: In vitro enzymatic BACE FRET (fluorescence resonance energy transfer) assay. The format is biochemical. To be noted: average IC50, enzyme assay; read-out: BACE 1 FRET assay. The essentials: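 Cleavage of a 50 nM fluorophore/quencher peptide FRET substrate by BACE for 1 h in 0.05 M acetate pH 4.2, 10% DMSO, 100 uM genapol. Reaction stopped with Tris to neutral pH before fluorescence reading.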

In assay [2] the test system is Aβ40 in conditioned medium of cells stably expressing Amyloid Precursor Protein (APP). Nature of the assay: In vitro BACE cell-based assay (Aβ40 in conditioned medium, sandwich ELISA). To be noted: read-out: HEK cell assay. In outline:
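Quantification relied on pAb40/6E10 sandwich ELISA with Europium fluorescence counts, and IC50 was fitted versus concentration.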

[3] abbreviates: Homo sapiens, HEK293, average IC50.
The mark [4] stands for this setting: Homo sapiens, HEK293, average IC50, HEK cells.

Sequence of Beta Secretase enzyme (BACE) (P56817 46-501, species assumed): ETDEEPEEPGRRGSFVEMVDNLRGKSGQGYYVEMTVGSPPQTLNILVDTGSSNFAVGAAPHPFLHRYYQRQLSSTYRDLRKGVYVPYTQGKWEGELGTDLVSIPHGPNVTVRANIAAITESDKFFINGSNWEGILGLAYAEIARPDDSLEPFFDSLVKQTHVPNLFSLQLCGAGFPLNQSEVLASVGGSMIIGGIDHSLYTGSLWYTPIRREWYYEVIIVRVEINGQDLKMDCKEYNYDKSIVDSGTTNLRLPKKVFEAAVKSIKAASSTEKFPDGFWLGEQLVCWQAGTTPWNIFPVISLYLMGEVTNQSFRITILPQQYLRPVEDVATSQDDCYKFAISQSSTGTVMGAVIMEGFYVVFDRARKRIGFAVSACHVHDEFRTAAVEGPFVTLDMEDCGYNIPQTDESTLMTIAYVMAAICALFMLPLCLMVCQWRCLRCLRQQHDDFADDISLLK

In the case of `NC1=N[C@@]2(CO1)c1cc(-c3cncc(F)c3)ccc1Oc1c(F)cc(N3C[C@@H]4C[C@H]3CO4)cc12` [Example 276, (4S)-4′-fluoro-7′-(5-fluoro-3-pyridinyl)-2′-((1S,4S)-2-oxa-5-azabicyclo[2.2.1]hept-5-yl)spiro[1,3-oxazole-4,9′-xanthen]-2-amine], the IC50 in assay [1] is 0.8 nM; in assay [2] (setting [3]) it was 3.3 nM.

For `CC1(C)C[C@@H](c2cnc3c(c2)[C@]2(COC(N)=N2)c2cc(-c4cccc(Cl)c4)ccc2O3)CCO1` [Example 474, (5S)-7-(3-chlorophenyl)-3-((4S)-2,2-dimethyltetrahydro-2H-pyran-4-yl)spiro[chromeno[2,3-b]pyridine-5,4′-[1,3]oxazol]-2′-amine], the IC50 in assay [1] stood at 0.9 nM; in assay [2] (average IC50, HEK cells) it was 9.4 nM.

In the case of `NC1=N[C@@]2(CS1)c1cc(-c3cccnc3)ccc1Oc1c(F)cc(C3=CCOCC3)cc12` [Example 796, (4S)-2′-(3,6-dihydro-2H-pyran-4-yl)-4′-fluoro-7′-(3-pyridinyl)spiro[1,3-thiazole-4,9′-xanthen]-2-amine], the IC50 in assay [1] was 0.5 nM; in assay [2] (setting [3]), 8 nM.

For the compound `NC1=N[C@]2(CO1)c1cc(-c3cccnc3)ccc1Oc1c2cc(C2=CCOCC2)c(F)c1F` (single isomer, unassigned) [Example 1006], the figures for the IC50 in assay [1] and in assay [2] (setting [3]) were 15.2 nM and 627 nM, respectively.

As for `CC1(C#Cc2ccc3c(c2)[C@]2(COC(N)=N2)c2cc(-c4cncnc4)c(F)cc2O3)COC1` [Example 498, (4R)-3′-fluoro-7′-((3-methyl-3-oxetanyl)ethynyl)-2′-(5-pyrimidinyl)spiro[1,3-oxazole-4,9′-xanthen]-2-amine], the IC50 in assay [1] worked out at 3.8 nM; in assay [2] (setting [4]) it was 19.1 nM.

Consider `NC1=N[C@@]2(CO1)c1cc(-c3ccc(N4CCC(F)(F)C4)nc3)ccc1Oc1cnc(N3CCC(F)(F)C3)cc12` [Example 423, (5S)-3-(3,3-difluoro-1-pyrrolidinyl)-7-(6-(3,3-difluoro-1-pyrrolidinyl)-3-pyridinyl)spiro[chromeno[2,3-c]pyridine-5,4′-[1,3]oxazol]-2′-amine], for which the IC50 in assay [1] turned out to be 458 nM; in assay [2] (setting [4]) it was 402 nM.

Take `NC1=N[C@@]2(CO1)c1cc(-c3ccc(F)cc3)ccc1Oc1cnc(-c3ccnc(F)c3)cc12` [Example 395, (5S)-7-(4-fluorophenyl)-3-(2-fluoro-4-pyridinyl)spiro[chromeno[2,3-c]pyridine-5,4′-[1,3]oxazol]-2′-amine]: the figures for the IC50 in assay [1] and in assay [2] (setting [4]) were 23.7 nM and 335 nM, respectively.

As for `Cc1cnc(F)c(-c2ccc3c(c2)[C@@]2(COC(N)=N2)c2cc(N4CCC(F)(F)CC4)ncc2O3)c1` [Example 420, (5S)-3-(4,4-difluoro-1-piperidinyl)-7-(2-fluoro-5-methyl-3-pyridinyl)spiro[chromeno[2,3-c]pyridine-5,4′-[1,3]oxazol]-2′-amine], the values for the IC50 in assay [1] and in assay [2] (setting [4]) were 1.2 nM and 15.1 nM, respectively.

On to `NC1=N[C@@]2(CO1)c1cc(-c3cccnc3F)ccc1Oc1cnc(C3CCCCC3)cc12` [Example 388, (5S)-3-cyclohexyl-7-(2-fluoro-3-pyridinyl)spiro[chromeno[2,3-c]pyridine-5,4′-[1,3]oxazol]-2′-amine], for which the results for the IC50 in assay [1] and in assay [2] (setting [4]) were 2.9 nM and 107 nM, respectively.

Turning to `NC1=N[C@@]2(CO1)c1cc(-c3cccnc3F)ccc1Oc1cnc(-c3cc(F)nc(F)c3)cc12` [Example 541, (5S)-3-(2,6-difluoro-4-pyridinyl)-7-(2-fluoro-3-pyridinyl)spiro[chromeno[2,3-c]pyridine-5,4′-[1,3]oxazol]-2′-amine], the results for the IC50 in assay [1] and in assay [2] (setting [4]) were 0.4 nM and 12.3 nM, respectively.

In the case of `NC1=N[C@@]2(CO1)c1cc(-c3cncnc3)ccc1Oc1cnc(-c3cc(F)nc(F)c3)cc12` [Example 542, (5S)-3-(2,6-difluoro-4-pyridinyl)-7-(5-pyrimidinyl)spiro[chromeno[2,3-c]pyridine-5,4′-[1,3]oxazol]-2′-amine], the IC50 in assay [1] worked out at 1.1 nM; in assay [2] (setting [4]), 18.8 nM.

As for `C1=C(c2cnc3c(c2)[C@]2(COC(NCc4ccccc4)=N2)c2cc(OCc4ccccc4)ccc2O3)CCOC1` [Example 968, (5S)-N-benzyl-7-(benzyloxy)-3-(3,6-dihydro-2H-pyran-4-yl)spiro[chromeno[2,3-b]pyridine-5,4′-[1,3]oxazol]-2′-amine], the IC50 is 1260 nM in assay [1] and at least 10000 nM in assay [2] (setting [4]).

As for `NC1=N[C@]2(CO1)c1cc(-c3cccnc3F)c(F)cc1Oc1c(F)cc(N3CCOCC3)cc12` [Example 870, (4R)-3′,5′-difluoro-2′-(2-fluoro-3-pyridinyl)-7′-(4-morpholinyl)spiro[1,3-oxazole-4,9′-xanthen]-2-amine], the figures for the IC50 in assay [1] and in assay [2] (setting [4]) were 157 nM and 6570 nM, respectively.

As to `CC1(C)CCN(c2cnc3c(c2)[C@]2(COC(N)=N2)c2cc(-c4cccnc4F)ccc2O3)CC1` [Example 480, (5S)-3-(4,4-dimethyl-1-piperidinyl)-7-(2-fluoro-3-pyridinyl)spiro[chromeno[2,3-b]pyridine-5,4′-[1,3]oxazol]-2′-amine], the IC50 was 2.5 nM in assay [1] and 9.4 nM in assay [2] (setting [4]).

For the compound `NC1=N[C@@]2(CO1)c1cc(-c3cncc(F)c3)ccc1Oc1cnc(-c3cncc(F)c3)cc12` [Example 373, (5S)-3,7-bis(5-fluoro-3-pyridinyl)spiro[chromeno[2,3-c]pyridine-5,4′-[1,3]oxazol]-2′-amine], the IC50 in assay [1] was determined as 2.2 nM; in assay [2] (setting [3]) it was 22.8 nM.

As for `NC1=N[C@@]2(CO1)c1cc(-c3cccnc3F)ccc1Oc1nc(F)c(N3CCOCC3)cc12` [Example 714, (S)-2-fluoro-7-(2-fluoropyridin-3-yl)-3-morpholino-5′H-spiro[chromeno[2,3-b]pyridine-5,4′-oxazol]-2′-amine], the values for the IC50 in assay [1] and in assay [2] (setting [4]) were 3.6 nM and 55 nM, respectively.

Turning to `CN(C)c1cc2c(cn1)Oc1ccc(-c3cccnc3)cc1C21CSC(N)=N1` [Example 889, (5R)-N~3~,N~3~-dimethyl-7-(3-pyridinyl)spiro[chromeno[2,3-c]pyridine-5,4′-[1,3]thiazole]-2′,3-diamine, (5S)-N~3~,N~3~-dimethyl-7-(3-pyridinyl)spiro[chromeno[2,3-c]pyridine-5,4′-[1,3]thiazole]-2′,3-diamine], the IC50 in assay [1] is 19.9 nM; in assay [2] (setting [4]), 540 nM.

On to `CC1(C)C[C@H](c2cnc3c(c2)[C@]2(COC(N)=N2)c2cc(-c4cccnc4F)ccc2O3)CCO1` [Example 469, (5S)-3-((4R)-2,2-dimethyltetrahydro-2H-pyran-4-yl)-7-(2-fluoro-3-pyridinyl)spiro[chromeno[2,3-b]pyridine-5,4′-[1,3]oxazol]-2′-amine], for which the IC50 in assay [1] turned out to be 2.8 nM; in assay [2] (average IC50, HEK cells), 13.9 nM.

As to `CC1(C#Cc2cc3c(cn2)Oc2ccc(-c4cccnc4F)cc2C32CSC(N)=N2)COC1` (stereo not drawn) [Example 683, 7-(2-fluoro-3-pyridinyl)-3-((3-methyl-3-oxetanyl)ethynyl)spiro[chromeno[2,3-c]pyridine-5,4′-[1,3]thiazol]-2′-amine], the IC50 was 1.2 nM in assay [1] and 19 nM in assay [2] (setting [4]).

Consider `COc1cncc(-c2ccc3c(c2)[C@@]2(COC(N)=N2)c2cc(OCC(C)(C)C#N)cc(F)c2O3)c1` [Example 264, 3-(((4S)-2-amino-4′-fluoro-7′-(5-methoxy-3-pyridinyl)spiro[1,3-oxazole-4,9′-xanthen]-2′-yl)oxy)-2,2-dimethylpropanenitrile], for which the IC50 came to 1 nM in assay [1] and 8.1 nM in assay [2] (setting [3]).

For the compound `NC1=N[C@@]2(CO1)c1cc(-c3cccnc3F)ccc1Oc1cc(F)c(C3CCOCC3)cc12` [Example 334, (4S)-3′-fluoro-7′-(2-fluoro-3-pyridinyl)-2′-(tetrahydro-2H-pyran-4-yl)spiro[1,3-oxazole-4,9′-xanthen]-2-amine], the results for the IC50 in assay [1] and in assay [2] (setting [3]) were 18.9 nM and 67.6 nM, respectively.

Take `NC1=N[C@@]2(CS1)c1cc(-c3cccnc3F)ccc1Oc1cnc(N3CC[C@@H](F)C3)cc12` [Example 929, (5S)-7-(2-fluoro-3-pyridinyl)-3-((3R)-3-fluoro-1-pyrrolidinyl)spiro[chromeno[2,3-c]pyridine-5,4′-[1,3]thiazol]-2′-amine]: the IC50 in assay [1] is 0.3 nM; in assay [2] (setting [4]), 3 nM.

With `CC(C)(C)COc1cc2c(cn1)Oc1ccc(-c3cccnc3F)cc1[C@@]21COC(N)=N1` [Example 609, (5S)-3-(2,2-dimethylpropoxy)-7-(2-fluoro-3-pyridinyl)spiro[chromeno[2,3-c]pyridine-5,4′-[1,3]oxazol]-2′-amine], the IC50 came out at 0.4 nM in assay [1] and 15 nM in assay [2] (setting [4]).

`NC1=N[C@@]2(CO1)c1cc(-c3cncc(F)c3)ccc1Oc1cnc(-c3ccnc(F)c3)cc12` [Example 376, (5S)-3-(2-fluoro-4-pyridinyl)-7-(5-fluoro-3-pyridinyl)spiro[chromeno[2,3-c]pyridine-5,4′-[1,3]oxazol]-2′-amine]: the results for the IC50 in assay [1] and in assay [2] (setting [3]) were 2.6 nM and 33 nM, respectively.

`NC1=N[C@@]2(CS1)c1cc(-c3cccnc3F)ccc1Oc1ncc(-c3ccnc(F)c3)cc12` [Example 767, (5S)-7-(2-fluoro-3-pyridinyl)-3-(2-fluoro-4-pyridinyl)spiro[chromeno[2,3-b]pyridine-5,4′-[1,3]thiazol]-2′-amine]: the IC50 stood at 1 nM in assay [1] and 23 nM in assay [2] (setting [3]).

In the case of `CCC(C)CSc1cnc2c(c1)[C@]1(COC(N)=N1)c1cc(-c3cccnc3)ccc1O2` (stereo partly drawn) [Example 99, (4′S)-3-(2-methylbutylthio)-7-(pyridin-3-yl)-5′H-spiro[chromeno[2,3-b]pyridine-5,4′-oxazol]-2′-amine], the IC50 in assay [1] stood at 17.3 nM; in assay [2] (setting [3]), 302 nM.

`COc1cc(F)c2c(c1)[C@@]1(COC(N)=N1)c1cc(Br)c(F)cc1O2` [Example 524, (4R)-2′-bromo-3′,5′-difluoro-7′-methoxyspiro[1,3-oxazole-4,9′-xanthen]-2-amine]: the IC50 in assay [1] is 1140 nM; in assay [2] (setting [4]), 1310 nM.
